Here are results for 21 compounds from patent publication US11434220B2, “Use of physiological cooling active ingredients, and compositions comprising such active ingredients” (BASF SE, priority 2017, dated 2022).

Assay [1] concerns trained panelists. As to the kind of experiment: Sensory assessment: cooling intensity of inventive amides in 5% sugar solution compared to FEMA 4809. Format: in vivo, human. The following applies: scale 1 (very weak) to 9 (very strong), n=10 to 11. The protocol: […] What were assessed here were initial cooling intensity, overall cooling intensity and long-lasting action on a scale from 1 (very weak) to 9 (very strong).

Assay [2] concerns the target T1, human TRPM8 receptor (Homo sapiens, UniProt Q7Z2W7).
T1 construct: expressed in transfected cells
As to the kind of experiment: Assay for TRPM8 modulators: Ca2+ fluorescence (Fluo-4) in HEK293-TRPM8 test cells. The assay is classed as cell-based. The settings on record: HEK293 cells stably transfected with human TRPM8, agonism, triplicates, 0.1-200 μM; read-out: Activity In vitro assay (EC50). The source says:
The test cell system produced, with human TRPM8 DNA, was a stably transfected HEK293 cell line. Preference is given here to HEK293 which, via the plasmid introduced, offers the option of induction of TRPM8 expression by means of tetracycline.
The agonism or antagonism of the receptor can be quantified by means of a Ca^2+-sensitive dye (e.g. FURA, Fluo-4 etc.). Agonists on their own result in an increase in the Ca^2+ signal; antagonists in the presence of menthol, for example, result in a reduction in the Ca^2+ signal (in each case detected by means of the Fluo-4 dye which is caused to have different fluorescence properties by Ca^2+).
First of all, in a manner known per se, a fresh culture of transformed HEK cells is produced in cell culture bottles. The HEK293-TRPM8 test cells are detached from the cell culture bottles by means of trypsin and 40 000 cells/well are sown with 100 μl of medium in 96-hole plates (Greiner #655948 poly-D-lysine-coated). For induction of the TRPM8 receptor, tetracycline is added to the growth medium (DMEM/HG, 10% FCS tetracycline-free, 4 mM L-glutamine, 15 μg/mL blasticidin, 100 μg/mL hygromycin B, 1 μg/mL tetracycline). The next day, the cells are laden with Fluo-4AM dye and the test is conducted.
The test substances are used in the assay in triplicates in concentrations of 0.1-200 μM. Normally, the compounds are kept in DMSO solutions and diluted down for the assay to a maximum DMSO concentration of 2%.

T1 sequence (Q7Z2W7 whole entry): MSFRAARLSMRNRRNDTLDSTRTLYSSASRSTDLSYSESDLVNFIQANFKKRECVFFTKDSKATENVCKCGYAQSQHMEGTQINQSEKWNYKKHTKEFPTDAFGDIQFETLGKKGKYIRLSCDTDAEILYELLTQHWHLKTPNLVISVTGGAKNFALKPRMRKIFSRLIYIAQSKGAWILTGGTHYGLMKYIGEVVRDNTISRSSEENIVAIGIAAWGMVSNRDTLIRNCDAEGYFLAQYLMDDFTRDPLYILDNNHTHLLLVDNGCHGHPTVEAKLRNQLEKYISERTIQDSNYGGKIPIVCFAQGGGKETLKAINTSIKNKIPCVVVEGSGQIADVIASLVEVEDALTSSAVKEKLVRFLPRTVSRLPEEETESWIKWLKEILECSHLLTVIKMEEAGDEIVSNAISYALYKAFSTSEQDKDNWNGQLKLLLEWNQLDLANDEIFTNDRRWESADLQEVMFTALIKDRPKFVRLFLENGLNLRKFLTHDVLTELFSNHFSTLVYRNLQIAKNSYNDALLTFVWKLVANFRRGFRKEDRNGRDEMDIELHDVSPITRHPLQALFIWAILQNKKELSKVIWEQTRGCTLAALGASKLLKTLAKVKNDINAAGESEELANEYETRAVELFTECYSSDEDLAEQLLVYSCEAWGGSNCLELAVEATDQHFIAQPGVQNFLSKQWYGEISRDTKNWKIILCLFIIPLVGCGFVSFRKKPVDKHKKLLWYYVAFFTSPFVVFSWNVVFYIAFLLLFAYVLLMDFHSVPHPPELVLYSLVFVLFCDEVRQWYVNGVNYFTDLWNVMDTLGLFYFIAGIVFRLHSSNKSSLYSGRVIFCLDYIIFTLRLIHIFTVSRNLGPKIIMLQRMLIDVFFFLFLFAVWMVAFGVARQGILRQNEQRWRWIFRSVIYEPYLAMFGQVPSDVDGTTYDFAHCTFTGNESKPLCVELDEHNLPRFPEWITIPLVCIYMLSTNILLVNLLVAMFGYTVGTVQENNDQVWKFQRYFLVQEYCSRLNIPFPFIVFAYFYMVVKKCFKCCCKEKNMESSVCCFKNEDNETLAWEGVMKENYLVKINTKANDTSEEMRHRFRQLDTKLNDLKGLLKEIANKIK

In assay [1] (20 ppm in 5% sugar solution), `CSCCN(C(=O)COc1ccc(C)cc1)c1ccccc1` [2-(4-methylphenoxy)-N-(2-methylsulfanylethyl)-N-phenyl-acetamide] came in with an Initial cooling effect of 2.2, a Long-lasting action of 2.8 and an Overall cooling intensity of 2.8. In addition, the EC50 (commonly the concentration at which the effect is half-maximal) in assay [2] turned out to be 25 µM.
Regarding `Cc1ccc(OCC(=O)N(c2ccccc2)C2CCSC2)cc1` (stereo not drawn) [2-(4-methylphenoxy)-N-phenyl-N-tetrahydrothiophen-3-yl-acetamide], the EC50 in assay [2] was 12.5 µM.
For the compound `O=C(/C=C/c1ccc2c(c1)OCO2)N(CC1CCCO1)c1cc[nH]n1` (stereo not drawn) [(E)-3-(1,3-benzodioxol-5-yl)-N-(1H-pyrazol-3-yl)-N-(tetrahydrofuran-2-ylmethyl)prop-2-enamide], the EC50 in assay [2] is 15 µM.
As for `O=C(/C=C/c1ccc2c(c1)OCO2)N(CC1CCCS1)c1cc[nH]n1` (stereo not drawn) [(E)-3-(1,3-benzodioxol-5-yl)-N-(1H-pyrazol-3-yl)-N-(tetrahydrothiophen-2-ylmethyl)prop-2-enamide], the EC50 in assay [2] is 5 µM.
Turning to `O=C(/C=C/c1ccc2c(c1)OCO2)N(c1ccccn1)C1CCSC1` (stereo not drawn) [(E)-3-(1,3-benzodioxol-5-yl)-N-(2-pyridyl)-N-tetrahydrothiophen-3-yl-prop-2-enamide], in assay [1] (20 ppm in 5% sugar solution), the Initial cooling effect amounted to 6.6, the Long-lasting action worked out at 7.9 and the Overall cooling intensity is given as 8.3. Besides, the EC50 in assay [2] came to 6 µM.
With `CCN(CCSC)C(=O)/C=C/c1ccc2c(c1)OCO2` [(E)-3-(1,3-benzodioxol-5-yl)-N-ethyl-N-(2-methylsulfanylethyl)prop-2-enamide], in assay [1] (20 ppm in 5% sugar solution), the Initial cooling effect is reported as 3.8, the Long-lasting action was 4.7 and the Overall cooling intensity is 5. Besides, the EC50 in assay [2] turned out to be 15 µM.
For `CCN(CCCSC)C(=O)/C=C/c1ccc2c(c1)OCO2` [(E)-3-(1,3-benzodioxol-5-yl)-N-ethyl-N-(3-methylsulfanylpropyl)prop-2-enamide], in assay [2], the EC50 worked out at 30 µM.
In assay [1] (20 ppm in 5% sugar solution), `O=C(/C=C/c1ccc2c(c1)OCO2)N(CC1CCCO1)c1ccccc1` (stereo not drawn) [(E)-3-(1,3-benzodioxol-5-yl)-N-phenyl-N-(tetrahydrofuran-2-ylmethyl)prop-2-enamide] came in with an Initial cooling effect of 3.1, a Long-lasting action of 5.3 and an Overall cooling intensity of 5.0. The EC50 in assay [2] was 5 µM.
In assay [1] (2 ppm in 5% sugar solution), `O=C(/C=C/c1ccc2c(c1)OCO2)N(c1ccccc1)C1CCOC1` (stereo not drawn) [(E)-3-(1,3-benzodioxol-5-yl)-N-phenyl-N-tetrahydrofuran-3-yl-prop-2-enamide] had an Initial cooling effect of 4.1, a Long-lasting action of 6.9 and an Overall cooling intensity of 6.1. In assay [1] (20 ppm in 5% sugar solution), this compound yielded an Initial cooling effect of 5.8, a Long-lasting action of 7.9 and an Overall cooling intensity of 7.8. For the same compound, the EC50 in assay [2] came out at 25 µM.
Take `COc1ccc(/C=C/C(=O)N(CC2CCCO2)c2cc[nH]n2)cc1` (stereo not drawn) [(E)-3-(4-methoxyphenyl)-N-(1H-pyrazol-3-yl)-N-(tetrahydrofuran-2-ylmethyl)prop-2-enamide]: the EC50 in assay [2] came out at 25 µM.
Take `COc1ccc(/C=C/C(=O)N(CCSC)c2ccccc2)cc1` [(E)-3-(4-methoxyphenyl)-N-(2-methylsulfanylethyl)-N-phenyl-prop-2-enamide]: in assay [2], the EC50 was found to be 25 µM.
As for `COc1ccc(/C=C/C(=O)N(c2ccccn2)C2CCSC2)cc1` (stereo not drawn) [(E)-3-(4-methoxyphenyl)-N-(2-pyridyl)-N-tetrahydrothiophen-3-yl-prop-2-enamide], in assay [1] (20 ppm in 5% sugar solution), the Initial cooling effect turned out to be 4.1, the Long-lasting action was determined as 5.9 and the Overall cooling intensity amounted to 5.6. In addition, the EC50 in assay [2] stood at 25 µM.
For `COc1ccc(/C=C/C(=O)N(CC2CCCO2)c2ccccc2)cc1` (stereo not drawn) [(E)-3-(4-methoxyphenyl)-N-phenyl-N-(tetrahydrofuran-2-ylmethyl)prop-2-enamide], in assay [2], the EC50 is 25 µM.
For the compound `COc1ccc(/C=C/C(=O)N(c2ccccc2)C2CCOC2)cc1` (stereo not drawn) [(E)-3-(4-methoxyphenyl)-N-phenyl-N-tetrahydrofuran-3-yl-prop-2-enamide], the EC50 in assay [2] stood at 12.5 µM.
Take `Cc1ccc(/C=C/C(=O)N(CC2CCCO2)c2cc[nH]n2)cc1` (stereo not drawn) [(E)-3-(p-tolyl)-N-(1H-pyrazol-3-yl)-N-(tetrahydrofuran-2-ylmethyl)prop-2-enamide]: in assay [2], the EC50 is 10 µM.
`Cc1ccc(/C=C/C(=O)N(c2ccccn2)C2CCSC2)cc1` (stereo not drawn) [(E)-3-(p-tolyl)-N-(2-pyridyl)-N-tetrahydrothiophen-3-yl-prop-2-enamide]: in assay [1] (20 ppm in 5% sugar solution), the Initial cooling effect came out at 5.3, the Long-lasting action worked out at 7.4 and the Overall cooling intensity is reported as 7.0. Moreover, the EC50 in assay [2] is 25 µM.
The corresponding values for `O=C(/C=C/c1ccccc1)N(c1ccccn1)C1CCSC1` (stereo not drawn) [(E)-3-phenyl-N-(2-pyridyl)-N-tetrahydrothiophen-3-yl-prop-2-enamide] are 5.3, 7.8, 7.8 and 30 µM.
For the compound `COc1ccc(/C=C/C(=O)N(c2ccsc2)C2CCCCC2)cc1` [(E)-N-cyclohexyl-3-(4-methoxyphenyl)-N-(3-thienyl)prop-2-enamide], in assay [2], the EC50 was found to be 25 µM.
On to `CCN(CCSC)C(=O)/C=C/c1ccc(C)cc1` [(E)-N-ethyl-N-(2-methylsulfanylethyl)-3-(p-tolyl)prop-2-enamide], for which the EC50 in assay [2] came to 10 µM.
Still for that read-out and setting: the figure for `Cc1ccc(/C=C/C(=O)N(CC2CCCO2)c2ccccc2)cc1` (stereo not drawn) [(E)-N-phenyl-3-(p-tolyl)-N-(tetrahydrofuran-2-ylmethyl)prop-2-enamide] is 5 µM.
On the same count and under the same terms, the same measure for `Cc1ccc(OCC(=O)N(c2ccsc2)C2CCCCC2)cc1` [N-cyclohexyl-2-(4-methylphenoxy)-N-(3-thienyl)acetamide]: 30 µM.
